In assay [1] the test system is HCT-116 (colon carcinoma). As to the kind of experiment: SRB anticancer assay, HCT-116. The settings on record: for IC50: SRB stain, 48 hours at 37° C., absorbance 564 nm. The class given is cell-based, human. The text has this:
(§1) Investigation for the bio-reactivity of H2L and PdL, as anticancer candidates, was achieved versus well documented human cancer cell lines, as three cancers entitled HepG2, MCF-7, and HCT-116, using the simplest tool SRB (sulforhodamine-B-stain). In particular, the most popular anticancer referenced drug (vinblastine) was used in the anticancer assay (the inhibited action of the cancer cells) to compare its bio-reactivity versus that one of H2L and PdL.
(§2) With HepG-2 (Hepatocellular carcinoma), HCT-116 (colon carcinoma), and MCF7 (breast adenocarcinoma), as human cancer cell lines, the antiproliferative reactivity of H2L and PdL was studied against the growth of these cancer cells by applying a spectrometric tool. Using SRB (sulforhodamine-B-stain) was essential in the spectrometric studies at a specific wavelength (564 nm, the optimized absorption wavelength). Recording the corresponded absorbance (A) at 564 nm was accomplished using a UV/Vis. spectrophotometer, UV-1800 mode Shimadzu with a mono-cell holder. With plates of 96-multiwell model, the culture of the current human cancer cell lines of 10^4 cells per well were accomplished followed by a gentle addition of DMSO solution of H2L or PdL the cultured wells of the cancer cell lines.
(§3) The resulting mixed solution of H2L or PdL solution with the subjected cancer cell line of human in SRB was assigned in incubated isolated atmosphere for 48 hours at 37° C. The isolated atmosphere was accomplished by CO2 gas bubbling with v/v […].
(§4) The same procedure was followed with vinblastine, as vinblastine was subjected as a reference anticancer agent to compare its reactivity against that one of the studied H2L and PdL. For WI-38, as the normal human fetal lung fibroblast, the pervious procedure of the cancer cell lines was applied for H2L and PdL to evaluate their selectivity index. Using Eq. 1, below, to derive the inhibited potential of H2L or PdL against the growth of the human cancer and normal cell lines through their effective concentration in M (IC50, the half effective concentration of H2L or PdL): […]

The test system of assay [2] is MCF7 (breast adenocarcinoma). As to the kind of experiment: SRB anticancer assay, MCF-7. The format is cell-based, human. The settings on record: for IC50: SRB stain, 48 hours at 37° C., absorbance 564 nm.
Description: as §1, §2, §3, §4

The subject of assay [3] is HepG-2 (Hepatocellular carcinoma). The assay is described as follows: SRB anticancer assay, HepG-2. The settings on record: for IC50: SRB stain, 48 hours at 37° C., absorbance 564 nm. The class given is cell-based, human.
Description: as §1, §2, §3, §4
(In general: In SRB staining, fixed cells bind dye roughly in proportion to their protein.)

Assay [4] concerns WI-38, normal human fetal lung fibroblast. The assay is described as follows: SRB assay on normal cell line WI-38. The format is cell-based. The settings on record: SRB stain, 48 hours at 37° C.
Description: as §1
as §2, with “lines. […]” for “lines.”

These results are taken from patent publication US11999755B1, “Effective anticancer drug candidate of dinuclear palladium (II) bis-dihydrozone malonyl complex” (KING FAISAL UNIVERSITY, priority 2024, dated 2024).

In general, IC50 refers to the concentration that gives 50% inhibition. A higher IC50 goes with a need for much substance. With `O=C(CC(=O)NN=C1C(=O)Nc2ccccc21)NN=C1C(=O)Nc2ccccc21` [H2L, malonyl dihydrazone-isatin ligand], the IC50 in assay [1] was determined as 49.6 µM; in assay [2], 43.1 µM; in assay [3], 48.6 µM; in assay [4], 133 ± 0.75 µM. In addition, the “Selectivity index HCT-116” value in assay [1] (normal WI-38 versus HCT-116) is 2.71. The “Selectivity index MCF-7” value in assay [2] (normal WI-38 versus MCF-7) was 3.09. In addition, in assay [3] (normal WI-38 versus HepG-2), the “Selectivity index HepG-2” value came to 2.77.
In the case of `CC[C@]1(O)C[C@@H]2CN(CCc3c([nH]c4ccccc34)[C@@](C(=O)OC)(c3cc4c(cc3OC)N(C)[C@H]3[C@@](O)(C(=O)OC)[C@H](OC(C)=O)[C@]5(CC)C=CCN6CC[C@]43[C@@H]65)C2)C1` [Vinblastine, vinblastine, reference compound], the IC50 in assay [1] (Homo sapiens, HCT-116) is 13.3 ± 0.11 µM; in assay [2] (Homo sapiens, MCF7), 4.12 ± 0.14 µM; in assay [3] (Homo sapiens, HepG2) it was 7.5 ± 0.1 µM.
